Source: patent US4921873A, “Antiviral and antitumor cyclohexadienone compositions” (Harbor Branch Oceanographic Institution, Inc., priority 1985, dated 1990)
Blank lines part the entries; values can stand above or below the compound they belong to.

Key:
[1] = test system: HSV-I; assay: HSV-I plaque inhibition disk assay (antiviral effectiveness); format: cell-based, herpes simplex-I; parameters: key to inhibition of plaque formation: +++: complete inhibition; ++: a few plaques around the outside of well; +: definite inhibition; +/-: questionable inhibition; -: no inhibition
Protocol: The following assay method was utilized to illustrate the antiviral effectiveness of the compound of Formula II. (1) Remove 75 cm^2 culture flasks from incubator (these were plated the previous week). (11) For assay, add 1×10^6 cells to each well (6 wells per culture dish). Bring each well to 2 ml with fresh medium. (1) Aspirate medium. (2) Add 0.5 of medium containing 200 pfu HSV-I. (3) Incubate […] with a small amount of shaking. (4) Add 2 ml MC-4000 to each well. (5) Place disks on surface and push through (1 mg/disc, 0.5 mg/disc, 0.25 mg/disc, etc. for crude extracts). (6) Incubate 48 hr. (making sure dishes remain level). Day 4: (1) Add 2 ml neutral red medium. (2) Incubate overnight.

[2] = test system: cells; assay: Zone of cytotoxicity in antiviral disk assay; format: cell-based; conditions: read at Day 5
Protocol: The following assay method was utilized to illustrate the antiviral effectiveness of the compound of Formula II.
(11) For assay, add 1×10^6 cells to each well (6 wells per culture dish). Bring each well to 2 ml with fresh medium.
(4) Add 2 ml MC-4000 to each well.
(5) Place disks on surface and push through (1 mg/disc, 0.5 mg/disc, 0.25 mg/disc, etc. for crude extracts).
(1) Add 2 ml neutral red medium.

[3] = test system: L-1210 murine leukemia cells; assay: L-1210 mouse leukemia cell cytotoxicity assay; format: cell-based; conditions: L-1210, at 200 μg/ml, in vitro
Protocol: The following assay method was utilized to illustrate the antitumor effectiveness of the compounds of formulas II, IV, V, VI and VII.
L1210 And P388 MOUSE LEUKEMIA CELL CYTOXICITY ASSAY 24-WELL PLATE SCREENING ASSAY AND TUBE ASSAY PROTOCOL
Media--Dulbeccos with glucose and pyruvate (Biologos, Inc) with 10% horse serum, (Biologos, Inc) and 1.0 μg/ml gentamicin (Gibco). Cells--L1210 and P-388 mouse leukemia cells (American Type Culture Collection) in media at a concentration of 5×10^4 cells/ml. Sterile 24-well culture plates (Nunc) for screening or 12×75 mm glass culture tubes (Becton-Dickinson) for tube assay. Microdispenser with 1 to 5 μl increments (Drummond Scientific Co. Broomall Pa). Finnpipette with […] and Finnpipette with 50 to 200 μl increments.
1. A sample of the composition to be assayed is added to each well or tube in an amount of from 200 μg/ml and 100 μg/ml for screening. For DDC of known active compounds use log concentrations from 100 μg/ml to 0.01 μg/ml for range-finding assay; when range has been determined, use five concentrations between highest and lowest active concentrations.
2. Add 2.0 ml of 5×10^4 cell suspension in media to each well or tube. Tubes are loosely covered with parafilm.
3. Incubate in 5% CO2 incubator 48 hours.
4. Visually read plates with inverted microscope, comparing with solvent control. Assign activity as follows: […]

[4] = Stability of isolated alcohol derivative at room temperature; format: physicochemical

SMILES: CC(=O)OCC(Cl)C1=CC(C)(C)C=CC1=O (stereo not drawn) [Formula II]
inhibition of plaque formation ([1]; 200 pfu, read at Day 5): ++
antiviral activity ([1]; results at Day 5, in words): definite antiviral activity
zone of cytotoxicity (diameter) [2]: 16 mm
viability at 200 µg/mL ([3]; Mus musculus, L1210, 48 h, read-out: survival): 100%

decomposition time [4]: two
SMILES: CC1(C)C=CC(=O)C(C(Cl)CO)=C1 (stereo not drawn) [Formula VIII]

SMILES: CC1(C)C=CC(=O)C(C2CO2)=C1 (stereo not drawn) [Formula VII]
survival ([3]; 48 hours, 2880 min): 28%
